Where a name gives a salt, the structure may show the parent alone.
Tests used:
Assay in all cases: Inhibition of cancer cell proliferation (MTT)
Type in all cases: cell-based, human
[1] = system: HCT116
Experimental: (§1) A test was conducted to confirm whether the compounds obtained in the above Examples can inhibit proliferation of human colon carcinoma cell line HCT116, glioblastoma cell lines U-87MG and T98G, neuroblastoma cell lines SH-SYSY and SK-N-SH, and lung cancer cell lines A549 and NCI-H23.
(§2) HCT116, U-87MG, SH-SYSY, SK-N-SH and A549 cells were culured in DMEM medium containing 10% FBS. T98G cells were cultured in MEM medium containing 10% FBS and NCI-H23 cells were cultured in […] medium containing 10% FBS. In order to analyze an inhibition of proliferation, HCT116 cells were dispensed in 2000 cells/well into 96 well plate, and SH-SYSY, SK-N-SH, U-87MG, T98G, A549, and NCI-H23 cells were dispensed in 3000 cells/well into 96 well plate. And then, the cells were cultured at 5% CO2 and 37° C. for 16 hrs to allow the cells to attach to the wells. The compounds of the above Examples were added to each well at a concentration of 0.004, 0.013, 0.04, 0.12, 0.37, 1.1, 3.3, and 10 uM, and the culture volume was adjusted to 100 ul. A control group was treated with dimethylsulfoxide (DMSO) at the same concentration, 0.08%, as used to treat the test compounds. Afterwards, cells were cultured at 5% CO2 and 37° C. for 72 hrs. And then, 10 ul of the solution of MTT (3-(4,5-dimethylthiazol-2-yl)-2,5-diphenyltetrazolium bromide) dissolved in PBS at 5 mg/ml was added to each well to identify viable cells and the cells were cultured for further 2 hrs. The culture solution was removed, 100 ul of DMSO was added to dissolve the formed formazan and then an absorbance was measured at 535 nm. Based on the absorbance of the control cells not treated with the compounds, the amounts of the viable cells according to the concentration of the compounds were calculated. GI50 (growth inhibition 50) value which is the concentration of the compound to inhibit cancer cell proliferation by 50% was calculated using Graphpad Prism 5.0 program.

[2] = system: NCI-H23
Experimental: as §1, §2

[3] = system: U-87MG
Experimental: as §1, §2

[4] = system: T98G
Experimental: as §1, §2

[5] = system: A549
Experimental: as §1, §2

Row | SMILES | GI50 ([1]; 72 hrs) [nM] | GI50 ([2]; 72 hrs) [nM] | GI50 ([3]; 72 hrs) [nM] | GI50 ([4]; 72 hrs) [nM] | GI50 ([5]; 72 hrs) [nM] | GI50 ([1]; Homo sapiens, HCT-116, 72 h) [nM] | GI50 ([2]; Homo sapiens, NCI-H23, 72 h) [nM] | GI50 ([3]; Homo sapiens, U-87 MG, 72 h) [nM] | GI50 ([4]; Homo sapiens, T98G, 72 h) [nM] | GI50 ([5]; Homo sapiens, A549, 72 h) [nM]
1 | Nc1nc(-c2nc(-c3ccnc(N)c3F)ccc2O)cc(C2CCNCC2)n1 [Example 84, 2′-amino-6-(2-amino-6-(piperidin-4-yl)pyrimidin-4-yl)-3′-fluoro-[2,4′-bipyridin]-5-ol acetate] | 60 | 2030 | 180 | 290 | 220 | – | – | – | – | –
2 | Nc1nc(-c2nc(-c3ccnc(N)c3F)ccc2O)cc(C2CCOCC2)n1 [Example 85, 2′-amino-6-(2-amino-6-(tetrahydro-2H-pyran-4-yl)pyrimidin-4-yl)-3′-fluoro-[2,4′-bipyridin]-5-ol 3hydrochloride] | 20 | 140 | 70 | 90 | 60 | – | – | – | – | –
3 | CCN1CCC(c2cc(-c3nc(-c4ccnc(N)c4F)ccc3O)nc(N)n2)CC1 [Example 35, 2′-amino-6-(2-amino-6-(1-ethylpiperidin-4-yl)pyrimidin-4-yl)-3′-fluoro-[2,4′-bipyridin]-5-ol] | – | – | – | – | – | 10 | 60 | 30 | 210 | 20
4 | Cc1c(-c2nc(-c3ccnc(N)c3F)ccc2O)nc(N)nc1C1CCN(C(C)C)CC1 [Example 45, 2′-amino-6-(2-amino-6-(1-isopropylpiperidin-4-yl)-5-methylpyrimidin-4-yl)-3′-fluoro-[2,4′-bipyridin]-5-ol] | – | – | – | – | – | 90 | 400 | 100 | 160 | 150
5 | CCCN1CCC(c2cc(-c3nc(-c4ccnc(N)c4F)ccc3O)nc(N)n2)CC1 [Example 87, 2′-amino-6-(2-amino-6-(1-propylpiperidin-4-yl)pyrimidin-4-yl)-3′-fluoro-[2,4′-bipyridin]-5-ol 4hydrochloride] | 3 | 40 | 10 | 20 | 10 | – | – | – | – | –
6 | CCN1CCCC(c2cc(-c3nc(-c4ccnc(N)c4F)ccc3O)nc(N)n2)C1 (stereo not shown) [Example 90, 2′-amino-6-(2-amino-6-(1-ethylpiperidin-3-yl)pyrimidin-4-yl)-3′-fluoro-[2,4′-bipyridin]-5-ol 4hydrochloride] | 40 | 390 | 100 | 190 | 110 | – | – | – | – | –
7 | CCCN1CCC(c2nc(N)nc(-c3nc(-c4ccnc(N)c4F)ccc3O)c2C)CC1 [Example 44, 2′-amino-6-(2-amino-5-methyl-6-(1-propylpiperidin-4-yl)pyrimidin-4-yl)-3′-fluoro-[2,4′-bipyridin]-5-ol] | – | 330 | – | – | – | 60 | – | 90 | 130 | 140

Results, then the compound that gave them:

Row | GI50 ([1]; 72 hrs) [nM] | GI50 ([2]; 72 hrs) [nM] | GI50 ([3]; 72 hrs) [nM] | GI50 ([4]; 72 hrs) [nM] | GI50 ([5]; 72 hrs) [nM] | GI50 ([1]; Homo sapiens, HCT-116, 72 h) [nM] | GI50 ([2]; Homo sapiens, NCI-H23, 72 h) [nM] | GI50 ([3]; Homo sapiens, U-87 MG, 72 h) [nM] | GI50 ([4]; Homo sapiens, T98G, 72 h) [nM] | GI50 ([5]; Homo sapiens, A549, 72 h) [nM] | SMILES
8 | 10 | 20 | 10 | 10 | 10 | – | – | – | – | – | CCCc1cnc(N)nc1-c1nc(-c2ccnc(N)c2F)ccc1O [Example 103, 2′-amino-6-(2-amino-5-propylpyrimidin-4-yl)-3′-fluoro-[2,4′-bipyridin]-5-ol 3hydrochloride]
9 | – | – | – | – | – | 30 | 60 | 60 | 40 | 70 | CC(C)c1cnc(N)nc1-c1nc(-c2ccnc(N)c2F)ccc1O [Example 58]
10 | – | – | – | – | 150 | 40 | 160 | 70 | 130 | – | CCCc1c(-c2nc(-c3ccnc(N)c3F)ccc2O)nc(N)nc1C1CCN(C(C)C)CC1 [Example 50, 2′-amino-6-(2-amino-6-(1-isopropylpiperidin-4-yl)-5-propylpyrimidin-4-yl)-3′-fluoro-[2,4′-bipyridin]-5-ol]
11 | – | 180 | – | 130 | 160 | 50 | – | 110 | – | – | Cc1cnc(N)nc1-c1nc(-c2ccnc(N)c2F)ccc1O [Example 55, 2′-amino-6-(2-amino-5-methylpyrimidin-4-yl)-3′-fluoro-[2,4′-bipyridin]-5-ol]
